Tests used:
[1] = drug substance; cited from earlier work
[2] = Bioequivalence study of fixed combination versus free combination, plasma PK by LC/MS/MS; format: in vivo, healthy subjects
Method: Pharmacokinetic measurements were performed on blood collected from each subject. […] The PK parameters were determined in plasma, using non-compartmental methods.
AUC0-tlast: Area under the concentration-time curve from time zero to time tlast, where tlast is the last time point with measurable concentration (ng hr/ml).
AUC0-inf: Area under the plasma concentration-time curve from time zero to infinity (ng hr/ml).
Cmax: Maximum (peak) plasma concentration (ng/ml).
Tmax: Time to reach peak or maximum concentration (hr).
T1/2: Elimination half-life associated with the terminal slope (E) of a semilogarithmic concentration-time curve (hr).

Row | SMILES | hygroscopicity [1] | intra-subject coefficient of variation (CV) for AUC0-inf ([2]; aliskiren) [%] | intra-subject coefficient of variation (CV) for AUC0-tlast ([2]; aliskiren) [%] | intra-subject coefficient of variation (CV) for Cmax ([2]; aliskiren) [%] | intra-subject CV for AUC0-inf ([2]; valsartan) [%] | intra-subject CV for AUC0-tlast ([2]; valsartan) [%] | intra-subject CV for Cmax ([2]; valsartan) [%]
1 | COCCCOc1cc(C[C@@H](C[C@H](N)[C@@H](O)C[C@H](C(=O)NCC(C)(C)C(N)=O)C(C)C)C(C)C)ccc1OC [Aliskiren, 2(S),4(S),5(S),7(S)—N-(3-amino-2,2-dimethyl-3-oxopropyl)-2,7-di(1-methylethyl)-4-hydroxy-5-amino-8-[4-methoxy-3-(3-methoxy-propoxy)phenyl]-octanamide] | highly hygroscopic | 33.19 | 33.98 | 51.90 | – | – | –
2 | CCCCC(=O)N(Cc1ccc(-c2ccccc2-c2nnn[nH]2)cc1)[C@H](C(=O)O)C(C)C [Valsartan] | – | – | – | – | 28.33 | 28.56 | 40.37

— patent US20120009257A1 (priority 2009, published 2012)
